According to patent publication EP2100894A1, “Pyridopyrimidines used as Plk1 (polo-like kinase) inhibitors” (4SC AG, priority 2008, dated 2009):
pIC50: −log10 of the molar value.

molecular target: T1, PIk1 (Homo sapiens, UniProt P53350); assay: PIk1 kinase activity inhibition assay (33P incorporation into alpha casein, flash plates); format: biochemical; details: recombinant N-terminally histidine-tagged PIk1, alpha casein as substrate, 100 nM Li-ATP, 80 minutes at 30°C
T1 construct: His tag (histidine tag) (N); made in house; host or cells: SF9 insect cells
Method: The inhibition of PIk1 kinase activity can be measured using recombinant PIk1 protein expressed as an N-terminally histidine-tagged protein in SF9 insect cells and alpha casein as substrate. The PIk1 assay is run in 96 well plates by incubating 50 to 100 ng per well recombinant PIk1, 500 ng per well alpha casein (Sigma, # C-6780) as substrate, 10 µl of compound of invention (test compounds were dissolved as 20 mM solutions in dimethylsulfoxide (DMSO) and subsequently diluted), and 100 nM Li-ATP (including ^33P-ATP) in 100 µl of reaction buffer ([…], pH 7.5; 3 mM MgCl2; 3 mM MnCl2; 3 µM Na-Orthovanadat; 1 mM DTT; 1 µg/ml PEG 8000) for 80 minutes at 30°C. The reactions are terminated by adding 100 µl stopping buffer (2% H3PO4 for 5 minutes) and are washed 3 times with washing solution (0,9% NaCl). Determining ^33P incorporated into the protein substrate alpha casein, the detection is based on the adhesion of the phosphorylated protein to the surface of scintillator-coated flash plates (Perkin Elmer, USA; # SMP-200). Phosphorylation of alpha casein is measured by counting the radioactivity bound to the plate for 60 sec. using a plate reader (Perkin Elmer, USA; Wallac Microbeta). By this method, the IC50 value of the PIk1 inhibition is determined as described above. […]

T1 sequence (P53350 whole entry): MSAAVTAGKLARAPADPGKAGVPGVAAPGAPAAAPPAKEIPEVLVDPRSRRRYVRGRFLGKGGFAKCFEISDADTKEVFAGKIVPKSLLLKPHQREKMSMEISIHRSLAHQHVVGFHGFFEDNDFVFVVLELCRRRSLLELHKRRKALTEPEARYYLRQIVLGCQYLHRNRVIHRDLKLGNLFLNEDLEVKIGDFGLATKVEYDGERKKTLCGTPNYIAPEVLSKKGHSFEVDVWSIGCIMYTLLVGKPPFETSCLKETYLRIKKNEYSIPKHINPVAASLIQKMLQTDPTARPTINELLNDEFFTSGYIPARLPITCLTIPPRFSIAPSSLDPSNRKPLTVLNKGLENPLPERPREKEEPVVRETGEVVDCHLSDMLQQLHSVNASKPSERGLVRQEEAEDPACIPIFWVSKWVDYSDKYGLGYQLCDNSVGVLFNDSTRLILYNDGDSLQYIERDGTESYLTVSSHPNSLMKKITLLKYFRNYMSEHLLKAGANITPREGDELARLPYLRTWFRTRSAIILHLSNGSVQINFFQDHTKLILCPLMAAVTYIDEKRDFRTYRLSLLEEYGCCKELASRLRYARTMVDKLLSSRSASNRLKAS

SMILES | pIC50
COc1cc(C(=O)NCC2CCN(C)CC2)ccc1Nc1ncc2c(n1)c(-c1ccsc1)c(OCC1CC1)c(=O)n2C [Example 48, 4-{[7-(cyclopropylmethoxy)-5-methyl-6-oxo-8-(3-thienyl)-5,6-dihydro-pyrido[3,2-d]pyrimidin-2-yl]amino}-3-methoxy-N-[(1-methylpiperidin-4-yl)methyl] benzamide] | > 8.00
CCOc1c(-c2nccs2)c2nc(Nc3ccc(C(=O)NC4CCN(C)CC4)cc3OC)ncc2n(C)c1=O [Example 50, 4-{[7-ethoxy-5-methyl-6-oxo-8-(1,3-thiazol-2-yl)-5,6-dihydropyrido[3,2-d]pyrimidin-2-yl]amino}-3-methoxy-N-(1-methylpiperidin-4-yl)benzamide] | > 7.00
COc1cc(C(=O)NC2CCN(C)CC2)ccc1Nc1ncc2c(n1)c(-c1ccsc1)c(OC1CC1)c(=O)n2C [Example 58, 4-{[7-(cyclopropyloxy)-5-methyl-6-oxo-8-(3-thienyl)-5,6-dihydropyri-do[3,2-d]pyrimidin-2-yl]amino}-3-methoxy-N-(1-methylpiperidin-4-yl)benzamide] | > 8.00
COc1cc(C(=O)NC2CCN(C)CC2)ccc1Nc1ncc2c(n1)c(-c1cscn1)c(OCC1CC1)c(=O)n2C [Example 63, 4-{[7-(cyclopropylmethoxy)-5-methyl-6-oxo-8-(1,3-thiazol-4-yl)-5,6-dihydropyrido[3,2-d]pyrimidin-2-yl]amino}-3-methoxy-N-(1-methylpiperidin-4-yl)benzamide] | > 8.00
C/C=C/c1c(OCC2CC2)c(=O)n(C)c2cnc(Nc3ccc(C(=O)NC4CCN(C)CC4)cc3C)nc12 [Example 64, 4-({7-(cyclopropylmethoxy)-5-methyl-6-oxo-8-[(1E)-prop-1-en-1-yl]-5,6-dihydropyrido[3,2-d]pyrimidin-2-yl}amino)-3-methyl-N-(1-methylpiperidin-4-yl)benzamide] | > 8.00
C/C=C/c1c(OCC2CC2)c(=O)n(C)c2cnc(Nc3ccc(C(=O)NC4CCN(C)CC4)cc3CC)nc12 [Example 65, 4-({7-(cyclopropylmethoxy)-5-methyl-6-oxo-8-[(1E)-prop-1-en-1-yl]-5,6-dihydropyrido[3,2-d]pyrimidin-2-yl}amino)-3-ethyl-N-(1-methylpiperidin-4-yl)benzamide] | > 8.00
Cc1cc(C(=O)NC2CCN(C)CC2)ccc1Nc1ncc2c(n1)c(-c1ccsc1)c(OCC1CC1)c(=O)n2C [Example 66, 4-{[7-(cyclopropylmethoxy)-5-methyl-6-oxo-8-(3-thienyl)-5,6-dihydropyrido[3,2-d]pyrimidin-2-yl]amino}-3-methyl-N-(1-methylpiperidin-4-yl)benzamide] | > 8.00
C/C=C/c1c(OCC2CC2)c(=O)n(C)c2cnc(Nc3ccc(C(=O)NC4CCN(C)CC4)cc3Cl)nc12 [Example 67, 3-chloro-4-({7-(cyclopropylmethoxy)-5-methyl-6-oxo-8-[(1E)-prop-1-en-1-yl]-5,6-dihydropyrido[3,2-d]pyrimidin-2-yl}amino)-N-(1-methylpiperidin-4-yl)benzamide] | > 8.00
COc1cc(C(=O)NC2CCN(C)CC2)ccc1Nc1ncc2c(n1)c(-c1ccncc1)c(OCC1CC1)c(=O)n2C [Example 68, 4-{[7-(cyclopropylmethoxy)-5-methyl-6-oxo-8-pyridin-4-yl-5,6-dihydro-pyrido[3,2-d]pyrimidin-2-yl]amino}-3-methoxy-N-(1-methylpiperidin-4-yl)benzamide] | > 8.00
COc1cc(C(=O)NC2CCN(C)CC2)ccc1Nc1ncc2c(n1)c(-c1cccnc1)c(OCC1CC1)c(=O)n2C [Example 69, 4-{[7-(cyclopropylmethoxy)-5-methyl-6-oxo-8-pyridin-3-yl-5,6-dihydro-pyrido[3,2-d]pyrimidin-2-yl]amino}-3-methoxy-N-(1-methylpiperidin-4-yl)benzamide] | > 8.00
CN1CCC(NC(=O)c2ccc(Nc3ncc4c(n3)c(-c3ccsc3)c(OCC3CC3)c(=O)n4C)c(Cl)c2)CC1 [Example 70, 3-chloro-4-{[7-(cyclopropylmethoxy)-5-methyl-6-oxo-8-(3-thienyl)-5,6-dihydropyrido[3,2-d]pyrimidin-2-yl]amino}-N-(1-methylpiperidin-4-yl)benzamide] | > 8.00

Now from value to compound:

pIC50 | SMILES
> 8.00 | COc1cc(C(=O)NCCC2CCCN2C)ccc1Nc1ncc2c(n1)c(-c1ccsc1)c(OCC1CC1)c(=O)n2C (stereo not drawn) [Example 47, 4-{[7-(cyclopropylmethoxy)-5-methyl-6-oxo-8-(3-thienyl)-5,6-dihydropyrido[3,2-d]pyrimidin-2-yl]amino}-3-methoxy-N-[2-(1-methylpyrrolidin-2-yl)ethyl]benzamide]
> 8.00 | COc1cc(C(=O)NC2CCN(C(C)C)CC2)ccc1Nc1ncc2c(n1)c(-c1ccsc1)c(OCC1CC1)c(=O)n2C [Example 49, 4-{[7-(cyclopropylmethoxy)-5-methyl-6-oxo-8-(3-thienyl)-5,6-dihydropyrido[3,2-d]pyrimidin-2-yl]amino}-N-(1-isopropylpiperidin-4-yl)-3-methoxybenzamide]
> 8.00 | COc1cc(C(=O)NC2CCN(C)CC2)ccc1Nc1ncc2c(n1)c(-c1ccccc1)c(OCC1CC1)c(=O)n2C [Example 51, 4-{[7-(cyclopropylmethoxy)-5-methyl-6-oxo-8-phenyl-5,6-dihydro-pyrido[3,2-d]pyrimidin-2-yl]amino}-3-methoxy-N-(1-methylpiperidin-4-yl)benzamide]
> 8.00 | COc1cc(C(=O)NC2CCN(C)CC2)ccc1Nc1ncc2c(n1)c(-c1ccc(F)cc1)c(OCC1CC1)c(=O)n2C [Example 52, 4-{[7-(cyclopropylmethoxy)-8-(4-fluorophenyl)-5-methyl-6-oxo-5,6-dihydropyrido[3,2-d]pyrimidin-2-yl]amino}-3-methoxy-N-(1-methylpiperidin-4-yl)benzamide]
> 8.00 | COc1cc(C(=O)NC2CCN(C)CC2)ccc1Nc1ncc2c(n1)c(-c1cccs1)c(OCC1CC1)c(=O)n2C [Example 53, 4-{[7-(cyclopropylmethoxy)-5-methyl-6-oxo-8-(2-thienyl)-5,6-dihydro-pyrido[3,2-d]pyrimidin-2-yl]amino}-3-methoxy-N-(1-methylpiperidin-4-yl)benzamide]
> 8.00 | COc1cc(C(=O)NC2CCN(C)CC2)ccc1Nc1ncc2c(n1)c(-c1cccc(F)c1)c(OCC1CC1)c(=O)n2C [Example 54, 4-{[7-(cyclopropylmethoxy)-8-(3-fluorophenyl)-5-methyl-6-oxo-5,6-dihydropyrido[3,2-d]pyrimidin-2-yl]amino}-3-methoxy-N-(1-methylpiperidin-4-yl)benzamide]
> 8.00 | COc1cc(C(=O)NC2CCN(C)CC2)ccc1Nc1ncc2c(n1)c(-c1cc(C)cs1)c(OCC1CC1)c(=O)n2C [Example 55, 4-{[7-(cyclopropylmethoxy)-5-methyl-8-(4-methyl-2-thienyl)-6-oxo-5,6-dihydropyrido[3,2-d]pyrimidin-2-yl]amino}-3-methoxy-N-(1-methylpiperidin-4-yl)benzamide]
> 8.00 | C/C=C/c1c(OC2CC2)c(=O)n(C)c2cnc(Nc3ccc(C(=O)NC4CCN(C)CC4)cc3OC)nc12 [Example 56, 4-({7-(cyclopropyloxy)-5-methyl-6-oxo-8-[(1E)-prop-1-en-1-yl]-5,6-dihydropyrido[3,2-d]pyrimidin-2-yl}amino)-3-methoxy-N-(1-methylpiperidin-4-yl)benzamide]
> 8.00 | COc1cc(C(=O)NC2CCN(C)CC2)ccc1Nc1ncc2c(n1)c(C1=CCCC1)c(OCC1CC1)c(=O)n2C [Example 57, 4-{[8-cyclopent-1-en-1-yl-7-(cyclopropylmethoxy)-5-methyl-6-oxo-5,6-dihydropyrido[3,2-d]pyrimidin-2-yl]amino}-3-methoxy-N-(1-methylpiperidin-4-yl)benzamide]
> 8.00 | COc1cc(C(=O)NC2CCN(C)CC2)ccc1Nc1ncc2c(n1)c(-c1ccccc1F)c(OCC1CC1)c(=O)n2C [Example 59, 4-{[7-(cyclopropylmethoxy)-8-(2-fluorophenyl)-5-methyl-6-oxo-5,6-dihydropyrido[3,2-d]pyrimidin-2-yl]amino}-3-methoxy-N-(1-methylpiperidin-4-yl)benzamide]
> 8.00 | COc1cc(C(=O)NC2CCN(C)CC2)ccc1Nc1ncc2c(n1)c(-c1csc(C)c1)c(OCC1CC1)c(=O)n2C [Example 60, 4-{[7-(cyclopropylmethoxy)-5-methyl-8-(5-methyl-3-thienyl)-6-oxo-5,6-dihydropyrido[3,2-d]pyrimidin-2-yl]amino}-3-methoxy-N-(1-methylpiperidin-4-yl)benzamide]
> 8.00 | COc1cc(C(=O)NC2CCN(C)CC2)ccc1Nc1ncc2c(n1)c(-c1cccc(C)c1)c(OCC1CC1)c(=O)n2C [Example 61, 4-{[7-(cyclopropylmethoxy)-5-methyl-8-(3-methylphenyl)-6-oxo-5,6-dihydropyrido[3,2-d]pyrimidin-2-yl]amino}-3-methoxy-N-(1-methylpiperidin-4-yl)benzamide]
> 8.00 | COc1cc(C(=O)NC2CCN(C)CC2)ccc1Nc1ncc2c(n1)c(-c1ccc(C)cc1)c(OCC1CC1)c(=O)n2C [Example 62, 4-{[7-(cyclopropylmethoxy)-5-methyl-8-(4-methylphenyl)-6-oxo-5,6-dihydropyrido[3,2-d]pyrimidin-2-yl]amino}-3-methoxy-N-(1-methylpiperidin-4-yl)benzamide]
